Results from US20020146787A1, “Coenzymes useful for the synthesis of L-carnitine” (Sigma-Tau Industrie Farmaceutiche Riunite S.p.A, priority 1998, published 2002).

Key:
[1] = molecular target: T1, L(−)-carnitine dehydratase (Escherichia coli, UniProt P31572); experiment: L(−)-carnitine dehydratase activation test (formation of L(−)-carnitine from crotonobetaine); assay type: biochemical; conditions: 0.002 μmol cofactor, 10 min at 37° C.
T1 construct: partly concentrated L(−)-carnitine dehydratase (without factor F showing any activity)
Protocol: (§1) For the L(−)-carnitine dehydratase activation test according to the invention purified gamma-butyrobetainyl-coenzyme A is supplied (preferably 1-10 nmol) on potassium phosphate buffer (10 mM pH 7.5), which is added with partly concentrated L(−)-carnitine dehydratase (without factor F showing any activity) and the crotonobetaine solution to be metabolized (1M) and incubated at 37° C.
(§2) The L(−)-carnitine formed was subsequently tested with an optical test with the aid of carnitine acetyltransferase (according to BERGMEYER (1970)). A similar procedure was adopted in the racemization reaction test, in which a solution of D(+)-carnitine (1M) was added in the place of crotonobetaine. The L(−)-carnitine formed can be determined exactly by prior testing of the system with known solutions of L(−)-carnitine.
as §1, with “crotonobetainyl-coenzyme” for “gamma-butyrobetainyl-coenzyme”
Formation of L(−)-carnitine from crotonobetaine by means of concentrated L(−)-carnitine dehydratase and gamma-butyrobetainyl-coenzyme A (BB-CoA) after 10 minutes' incubation at 37° C. on potassium phosphate buffer (10 mM, pH 7.5).
Formation of L(−)-carnitine from crotonobetaine by means of concentrated L(−)-carnitine dehydratase and crotonobetainyl-coenzyme A (CB-CoA) after 10 minutes' incubation at 37° C. on potassium phosphate buffer (10 mM, pH 7.5).

[2] = tested on: system of racemization of carnitine; experiment: Racemization reaction test (formation of L(−)-carnitine from D(+)-carnitine); assay type: biochemical; conditions: 0.002 μmol cofactor, 10 min at 37° C.
Protocol: as §2
Formation of L(−)-carnitine from D(+)-carnitine by means of a system of racemization of carnitine and gamma-butyrobetainyl-coenzyme A (BB-CoA) after 10 minutes' incubation at 37° C. on potassium phosphate buffer (10 mM, pH 7.5).
Formation of L(−)-carnitine from D(+)-carnitine via a system of racemization of carnitine and crotonobetainyl-coenzyme A (CB-CoA) after 10 minutes' incubation at 37° C. on potassium phosphate buffer (10 mM, pH 7.5).

pH stability for 1 h = assay type: physicochemical; conditions: pH range
Protocol: (§3) The gamma-butyrobetainyl chloride thus obtained is suitable for the synthesis of gamma-butyrobetainyl-coenzyme A. Coenzyme A is first suspended in an iced mixture of 1M of sodium bicarbonate at pH 7.5-9.5 (preferably pH 8.5). To this is added a definite amount of gamma-butyrobetainyl chloride (preferably in excess) keeping the pH values under control. After 15-30 minutes the reaction is complete. The formation of gamma-butyrobetainyl-coenzyme A is checked by HPLC (Spherisorb, C18 column) and finally subjected to a further purification stage (ion-exchange chromatography on DOWEX 50). The purity is checked again by HPLC (Spherisorb, C18 column). The physicochemical properties were determined on the washed product (see following table).
as §3, with “crotonobetainyl” for “gamma-butyrobetainyl”, “crotonobetainyl-coenzyme” for “gamma-butyrobetainyl-coenzyme”, “The purity is checked again by HPLC (Spherisorb, C18 column).” left out

[3] = Temperature stability (1 h); assay type: physicochemical
Protocol: as §3
as §3, with “crotonobetainyl” for “gamma-butyrobetainyl”, “crotonobetainyl-coenzyme” for “gamma-butyrobetainyl-coenzyme”

Solubility = assay type: physicochemical; conditions: solvent in which soluble
Protocol: as §3
as §3, with “crotonobetainyl” for “gamma-butyrobetainyl”, “crotonobetainyl-coenzyme” for “gamma-butyrobetainyl-coenzyme”, “The purity is checked again by HPLC (Spherisorb, C18 column).” left out

[4] = 0 μg L-carnitine dehydratase (no enzyme), 20 μmol crotonobetaine, pH 7.5
[5] = 10 μg L-carnitine dehydratase, 0 μmol crotonobetaine (no substrate), pH 7.5
[6] = 10 μg L-carnitine dehydratase, 20 μmol crotonobetaine, potassium phosphate buffer 10 mM pH 7.5
[7] = 0 μg carnitine racemization system, 20 μmol substrate, pH 7.5
[8] = 30 μg carnitine racemization system, 0 μmol substrate, pH 7.5
[9] = 30 μg carnitine racemization system, 20 μmol substrate (head: Crotonobetaine, text: D(+)-carnitine), potassium phosphate buffer 10 mM pH 7.5

T1 sequence (P31572 whole entry): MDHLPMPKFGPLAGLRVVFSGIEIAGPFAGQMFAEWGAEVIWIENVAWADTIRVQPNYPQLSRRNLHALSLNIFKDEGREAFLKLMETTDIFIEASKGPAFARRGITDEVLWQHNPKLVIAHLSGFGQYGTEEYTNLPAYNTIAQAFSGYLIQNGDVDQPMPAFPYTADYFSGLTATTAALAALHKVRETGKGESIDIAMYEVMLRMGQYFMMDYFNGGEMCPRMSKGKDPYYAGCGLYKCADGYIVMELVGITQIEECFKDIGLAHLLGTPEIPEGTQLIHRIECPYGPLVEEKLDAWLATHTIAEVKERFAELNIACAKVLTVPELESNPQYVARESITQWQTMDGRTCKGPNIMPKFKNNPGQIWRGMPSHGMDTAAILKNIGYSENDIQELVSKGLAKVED

SMILES | Carnitine synthesis [1, 4] [µmol] | Carnitine synthesis [1, 5] [µmol] | Carnitine synthesis [1, 6] [µmol] | Carnitine synthesis [2, 7] [µmol] | Carnitine synthesis [2, 8] [µmol] | Carnitine synthesis [2, 9] [µmol] | pH stability for 1 h (pH stability for 1 h) | Temperature stability (1 h) ([3]; 0° C. to 90° C.) | Temperature stability (1 h) ([3]; −20° C.) | Solubility (Solubility) | Temperature stability (1 h) ([3]; 20° C. to 60° C.) | Temperature stability (1 h) ([3]; −20° C. to 0° C.)
CC(C)(COP(=O)(O)OP(=O)(O)OC[C@H]1O[C@@H](n2cnc3c(N)ncnc32)[C@H](O)[C@@H]1OP(=O)(O)O)[C@@H](O)C(=O)NCCC(=O)NCCSC(=O)CCC[N+](C)(C)C [BB-CoA, gamma-butyrobetainyl-coenzyme A] | 0 | 0 | 0.18 | 0 | 0 | 0.162 | 3-10 | >90%: 0 °C to 90 °C | 100%: −20 °C | water | – | –
CC(C)(COP(=O)(O)OP(=O)(O)OC[C@H]1O[C@@H](n2cnc3c(N)ncnc32)[C@H](O)[C@@H]1OP(=O)(O)O)[C@@H](O)C(=O)NCCC(=O)NCCSC(=O)/C=C/C[N+](C)(C)C [CB-CoA, crotonobetainyl-coenzyme A] | 0 | 0 | 0.271 | 0 | 0 | 0.243 | 2-10 | – | – | water | 75%: 20 °C to 60 °C | 100%: −20 °C to 0 °C
